As usually defined, the IC50 is the concentration that gives 50% inhibition. One may read the inhibition as the change of the read-out against control, counted positive when it falls. For orientation: half-life means the time needed for the level to fall by half in the phase considered.

We go through 17 molecules from ChEMBL document CHEMBL1158622, “Discovery of a series of indan carboxylic acid glycogen phosphorylase inhibitors” (Bioorg Med Chem Lett, 2010).

“And” between values parts separate entries of the source, which are not always exact repeats. Equal values may be shown once.

Data set [1] can be described thus: (§1) Oral bioavailability in rat at 5 mg/kg oral & 2 mg/kg iv dose. Format: ADME, organism-based. The conditions noted are these: in vivo.
Data set [2] has as its target T1, Glycogen phosphorylase, liver form (Homo sapiens, UniProt P06737).
T1 sequence (P06737 whole entry): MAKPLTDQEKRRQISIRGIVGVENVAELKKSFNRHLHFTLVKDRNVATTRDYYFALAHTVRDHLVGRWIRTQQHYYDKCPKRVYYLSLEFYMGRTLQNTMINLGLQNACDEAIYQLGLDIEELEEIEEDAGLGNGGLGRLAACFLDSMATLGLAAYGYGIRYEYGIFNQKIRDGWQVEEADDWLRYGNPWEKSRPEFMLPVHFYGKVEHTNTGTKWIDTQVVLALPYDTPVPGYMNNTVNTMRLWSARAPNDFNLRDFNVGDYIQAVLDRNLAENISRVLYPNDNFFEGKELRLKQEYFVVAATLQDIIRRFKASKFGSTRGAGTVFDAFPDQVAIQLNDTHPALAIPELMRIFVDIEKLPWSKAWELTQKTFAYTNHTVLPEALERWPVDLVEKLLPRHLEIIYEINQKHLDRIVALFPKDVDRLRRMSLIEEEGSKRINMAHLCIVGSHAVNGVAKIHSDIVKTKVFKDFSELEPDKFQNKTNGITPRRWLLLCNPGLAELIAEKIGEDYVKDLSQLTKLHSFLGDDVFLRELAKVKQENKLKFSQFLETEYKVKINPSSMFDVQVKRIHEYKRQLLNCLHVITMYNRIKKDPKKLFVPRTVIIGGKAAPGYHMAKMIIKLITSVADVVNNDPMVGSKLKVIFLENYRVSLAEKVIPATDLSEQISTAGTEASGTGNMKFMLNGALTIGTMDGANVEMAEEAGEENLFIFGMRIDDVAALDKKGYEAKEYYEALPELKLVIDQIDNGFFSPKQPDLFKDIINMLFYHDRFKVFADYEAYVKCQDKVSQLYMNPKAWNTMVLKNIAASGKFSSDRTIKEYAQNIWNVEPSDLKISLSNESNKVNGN
Briefly: Inhibition of human recombinant liver glycogen phosphorylase by multienzyme-coupled reaction.

Data set [3] is filed under the species Rattus norvegicus. In words: Free plasma concentration in rat. The conditions noted are these: in vivo. Format: ADME, organism-based.
Data set [4] concerns the target T2, CYP1A2 (Homo sapiens, UniProt P05177).
T2 sequence (P05177 whole entry): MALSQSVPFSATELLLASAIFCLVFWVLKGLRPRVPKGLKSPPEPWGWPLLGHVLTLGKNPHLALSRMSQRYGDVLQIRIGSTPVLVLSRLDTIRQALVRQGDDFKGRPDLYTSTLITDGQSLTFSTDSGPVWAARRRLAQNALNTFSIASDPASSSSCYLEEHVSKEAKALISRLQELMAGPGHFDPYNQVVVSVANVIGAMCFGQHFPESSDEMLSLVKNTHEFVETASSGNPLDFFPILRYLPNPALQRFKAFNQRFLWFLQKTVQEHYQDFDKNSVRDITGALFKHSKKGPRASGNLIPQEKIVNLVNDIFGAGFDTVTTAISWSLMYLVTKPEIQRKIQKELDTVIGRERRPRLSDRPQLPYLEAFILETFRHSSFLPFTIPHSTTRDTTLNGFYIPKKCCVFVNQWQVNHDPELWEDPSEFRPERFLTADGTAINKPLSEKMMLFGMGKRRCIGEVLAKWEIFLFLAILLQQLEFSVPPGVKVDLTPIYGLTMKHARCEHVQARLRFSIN
In words: Inhibition of CYP1A2 at 10 uM. Format: ADME.

Data set [5] has as its target CYP2D6 (Homo sapiens, UniProt P10635). In words: Inhibition of CYP2D6 at 10 uM. In kind it is ADME.
The nature of data set [6]: Oral bioavailability in male Wistar rats at 11 - 12.2 umol/kg oral & 4.3 - 4.9 umol/kg iv dose. The conditions noted are these: rat, in vivo. Format: ADME, organism-based.
A short description of data set [7]: Volume of distribution in Wistar rat at […], iv and 11 to 12.2 umol/kg, po. Format: ADME, organism-based. The conditions noted are these: in vivo.
Data set [8] addresses CYP2C19 (Homo sapiens, UniProt P33261). Briefly: Inhibition of CYP2C19 at 10 uM. In kind it is ADME.
Data set [9] is described as follows: Half life in male Wistar rats at 4.3 - 4.9 umol/kg iv dose (11 - 12.2 umol/kg oral). In kind it is ADME, organism-based. The conditions noted are these: rat, in vivo.
In data set [10] the target is Voltage-gated inwardly rectifying potassium channel KCNH2 (Homo sapiens, UniProt Q12809).
Sequence of Voltage-gated inwardly rectifying potassium channel KCNH2 (Q12809 whole entry): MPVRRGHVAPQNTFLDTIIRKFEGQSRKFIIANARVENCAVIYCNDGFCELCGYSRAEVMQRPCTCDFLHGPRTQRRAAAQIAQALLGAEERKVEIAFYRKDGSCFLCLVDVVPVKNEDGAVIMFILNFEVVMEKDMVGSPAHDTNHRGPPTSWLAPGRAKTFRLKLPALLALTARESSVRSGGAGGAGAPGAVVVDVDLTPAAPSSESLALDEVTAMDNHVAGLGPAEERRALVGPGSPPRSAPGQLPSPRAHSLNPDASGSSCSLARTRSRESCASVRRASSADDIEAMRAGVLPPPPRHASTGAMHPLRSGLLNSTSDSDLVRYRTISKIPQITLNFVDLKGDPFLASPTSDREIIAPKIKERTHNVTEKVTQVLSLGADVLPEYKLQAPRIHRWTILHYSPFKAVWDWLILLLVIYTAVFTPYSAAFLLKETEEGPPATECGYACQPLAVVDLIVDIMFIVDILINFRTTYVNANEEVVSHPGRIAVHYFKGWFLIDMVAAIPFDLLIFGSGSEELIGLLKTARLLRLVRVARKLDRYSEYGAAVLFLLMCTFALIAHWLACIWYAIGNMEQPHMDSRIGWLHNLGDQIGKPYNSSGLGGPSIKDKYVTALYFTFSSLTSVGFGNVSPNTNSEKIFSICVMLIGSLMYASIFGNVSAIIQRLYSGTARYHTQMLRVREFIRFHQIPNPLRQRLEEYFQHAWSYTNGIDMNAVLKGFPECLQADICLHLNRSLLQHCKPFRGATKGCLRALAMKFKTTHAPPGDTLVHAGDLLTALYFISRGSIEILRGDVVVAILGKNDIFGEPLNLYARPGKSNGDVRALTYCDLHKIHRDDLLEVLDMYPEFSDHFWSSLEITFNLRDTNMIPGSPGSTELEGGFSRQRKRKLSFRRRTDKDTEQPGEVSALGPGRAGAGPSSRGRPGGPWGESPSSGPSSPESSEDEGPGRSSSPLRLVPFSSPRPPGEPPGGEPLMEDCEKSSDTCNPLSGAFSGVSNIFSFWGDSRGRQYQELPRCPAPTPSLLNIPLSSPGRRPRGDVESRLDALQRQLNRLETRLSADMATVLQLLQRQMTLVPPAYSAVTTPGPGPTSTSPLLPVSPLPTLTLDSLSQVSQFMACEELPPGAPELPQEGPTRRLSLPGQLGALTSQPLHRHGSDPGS
The target in data set [11] is CYP2C9 (Homo sapiens, UniProt P11712). In words: Inhibition of CYP2C9 at 10 uM. Format: ADME.
Sequence of CYP2C9 (P11712 whole entry): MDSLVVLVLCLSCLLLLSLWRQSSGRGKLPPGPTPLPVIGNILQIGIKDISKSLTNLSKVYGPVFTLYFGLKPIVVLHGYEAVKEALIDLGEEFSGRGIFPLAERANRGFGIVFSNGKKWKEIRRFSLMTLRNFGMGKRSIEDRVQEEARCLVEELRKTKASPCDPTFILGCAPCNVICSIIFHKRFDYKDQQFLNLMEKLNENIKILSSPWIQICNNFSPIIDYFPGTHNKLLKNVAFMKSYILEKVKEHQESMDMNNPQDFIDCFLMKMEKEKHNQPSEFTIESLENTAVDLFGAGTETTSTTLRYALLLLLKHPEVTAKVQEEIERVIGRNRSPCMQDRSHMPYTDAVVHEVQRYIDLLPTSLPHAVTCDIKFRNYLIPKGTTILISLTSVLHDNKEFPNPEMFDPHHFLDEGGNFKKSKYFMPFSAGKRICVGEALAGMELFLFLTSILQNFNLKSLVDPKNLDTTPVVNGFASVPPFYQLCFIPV
Data set [12] is described as follows: Clearance in Wistar rat at […], iv and 11 to 12.2 umol/kg, po. In kind it is ADME, organism-based. The settings on record: in vivo.
Data set [13] addresses CYP3A4 (Homo sapiens, UniProt P08684). Briefly: Inhibition of […] at 10 uM. Format: ADME.
For data set [14], the system named is Rattus norvegicus. In words: Antihyperglycemic activity in Zucker fa/fa rat assessed as reduction in glucose level at 17 umol/kg dosed 45 mins prior to glucagon challenge measured after 90 mins. In kind it is functional. Details: scale not given: the % may be the effect or the level left.
Data set [15] concerns Rattus norvegicus. The description is as §1. Format: ADME, organism-based. The settings on record: in vivo.

Sequence of CYP2C19 (P33261 whole entry): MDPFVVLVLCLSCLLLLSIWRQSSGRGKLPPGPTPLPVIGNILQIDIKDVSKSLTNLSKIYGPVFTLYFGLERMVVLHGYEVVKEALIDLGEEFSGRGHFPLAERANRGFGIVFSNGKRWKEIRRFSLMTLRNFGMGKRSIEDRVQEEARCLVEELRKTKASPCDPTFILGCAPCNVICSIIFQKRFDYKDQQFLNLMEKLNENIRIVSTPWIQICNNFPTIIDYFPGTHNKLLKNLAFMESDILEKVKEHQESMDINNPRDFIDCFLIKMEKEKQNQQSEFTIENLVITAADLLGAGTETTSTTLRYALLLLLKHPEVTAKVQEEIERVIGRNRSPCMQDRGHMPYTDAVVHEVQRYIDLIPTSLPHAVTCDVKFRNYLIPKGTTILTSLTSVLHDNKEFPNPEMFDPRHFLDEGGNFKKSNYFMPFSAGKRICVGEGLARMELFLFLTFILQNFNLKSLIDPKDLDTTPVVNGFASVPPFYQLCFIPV
Sequence of CYP2D6 (P10635 whole entry): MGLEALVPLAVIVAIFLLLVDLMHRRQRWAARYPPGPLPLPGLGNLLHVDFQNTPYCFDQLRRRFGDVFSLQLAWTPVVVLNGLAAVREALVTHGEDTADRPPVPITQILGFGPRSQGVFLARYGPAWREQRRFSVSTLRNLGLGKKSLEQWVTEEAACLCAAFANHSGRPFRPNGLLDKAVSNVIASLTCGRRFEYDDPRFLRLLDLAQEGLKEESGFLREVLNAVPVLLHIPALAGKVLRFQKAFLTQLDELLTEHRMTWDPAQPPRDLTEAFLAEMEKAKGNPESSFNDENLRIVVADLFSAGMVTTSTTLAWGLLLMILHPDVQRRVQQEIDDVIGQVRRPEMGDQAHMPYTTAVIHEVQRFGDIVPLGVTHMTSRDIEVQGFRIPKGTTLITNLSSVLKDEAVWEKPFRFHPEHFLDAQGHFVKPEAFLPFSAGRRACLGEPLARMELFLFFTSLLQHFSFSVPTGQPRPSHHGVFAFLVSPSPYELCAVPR
Sequence of CYP3A4 (P08684 whole entry): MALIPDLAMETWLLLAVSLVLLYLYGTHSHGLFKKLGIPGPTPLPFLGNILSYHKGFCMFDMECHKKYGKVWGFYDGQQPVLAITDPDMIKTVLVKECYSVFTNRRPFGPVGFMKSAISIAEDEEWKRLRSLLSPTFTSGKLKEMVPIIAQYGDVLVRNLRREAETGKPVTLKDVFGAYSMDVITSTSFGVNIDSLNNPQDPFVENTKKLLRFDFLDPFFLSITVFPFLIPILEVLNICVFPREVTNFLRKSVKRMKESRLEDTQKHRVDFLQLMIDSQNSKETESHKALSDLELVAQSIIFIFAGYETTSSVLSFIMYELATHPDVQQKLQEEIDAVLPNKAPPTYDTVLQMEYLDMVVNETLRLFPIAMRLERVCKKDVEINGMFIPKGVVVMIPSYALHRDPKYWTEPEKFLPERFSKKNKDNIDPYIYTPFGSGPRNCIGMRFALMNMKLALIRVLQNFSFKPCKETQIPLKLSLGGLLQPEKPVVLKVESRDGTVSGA

As to `O=C(O)CSC[C@@H]1c2ccccc2C[C@H]1NC(=O)c1cc2sc(Cl)c(Cl)c2[nH]1`, the bioavailability in data set [1] was found to be 23%. Further, the IC50 in data set [2] was found to be 0.04 µM.

Regarding `O=C(O)C[C@H]1c2ccccc2C[C@@H]1NC(=O)c1cc2cc(Cl)sc2[nH]1`, the IC50 in [2] is 1.2 µM.

In the case of `O=C(O)CC[C@@H]1c2ccccc2C[C@H]1NC(=O)c1cc2sc(Cl)c(Cl)c2[nH]1`, the bioavailability in [1] is 80%. Moreover, the IC50 in data set [2] came out at 0.056 µM.

Turning to `O=C(O)CCC[C@@H]1c2ccccc2C[C@H]1NC(=O)c1cc2sc(Cl)c(Cl)c2[nH]1`, in data set [1], the bioavailability worked out at 118%. Further, the IC50 in data set [2] came out at 0.054 µM.

As for `O=C(O)CO[C@@H]1c2ccccc2C[C@H]1NC(=O)c1cc2sc(Cl)c(Cl)c2[nH]1`, in [1], the bioavailability worked out at 5%. For the same molecule, the IC50 in data set [2] came to 0.03 µM.

Turning to `O=C(O)CCO[C@@H]1c2ccccc2C[C@H]1NC(=O)c1cc2sc(Cl)c(Cl)c2[nH]1`, the bioavailability in [1] was 55%. Further, the IC50 in [2] amounted to 0.059 µM.

As to `O=C(O)C[C@@H]1c2ccccc2C[C@H]1NC(=O)c1cc2cc(Cl)ccc2[nH]1`, in data set [1], the bioavailability is 77%. In addition, the 50% inhibitory concentration (IC50) in data set [2] was 0.057 µM.

Consider `O=C(O)C[C@@H]1c2ccccc2C[C@H]1NC(=O)c1cc2cc(F)ccc2[nH]1`, for which the bioavailability in data set [1] was 88%.

Turning to `O=C(O)C[C@@H]1c2ccccc2C[C@H]1NC(=O)c1cc2cc(Cl)sc2[nH]1`, the bioavailability in data set [1] is 41%. Further, the IC50 in data set [2] worked out at 0.04 µM.

In the case of `O=C(O)C[C@@H]1c2ccccc2C[C@H]1NC(=O)c1cc2cc(Cl)c(F)cc2[nH]1`, the bioavailability in [1] is 65%. In [2], the 50% inhibitory concentration (IC50) amounted to 0.076 µM.

`O=C(O)CC(=O)N[C@@H]1c2ccccc2C[C@H]1NC(=O)c1cc2sc(Cl)c(Cl)c2[nH]1`: in data set [1], the bioavailability was found to be 2%. The concentration for half-maximal inhibition (IC50) in data set [2] turned out to be 0.056 µM.

Take `O=C(O)C[C@@H]1c2ccccc2C[C@H]1NC(=O)c1cc2cc(Cl)ncc2[nH]1`: the bioavailability in data set [1] came out at 11%. The fraction unbound in data set [3] amounted to 0.01%. Also, the IC50 in data set [2] came out at 0.26 µM.

As to `O=C(O)C[C@@H]1c2ccccc2C[C@H]1NC(=O)c1cc2sc(Cl)c(Cl)c2[nH]1`, the inhibition at 10 µM in data set [4], in data set [5], in [8], in [11] and in [13] was less than 50% each time. For the same molecule, the bioavailability in [6] and in data set [1] was 65% throughout. Also, the Vd in data set [7] was determined as 0.2 L/kg. This molecule also gave a half-life in data set [9] of 8 h. The values for the IC50 in [10] and in data set [2] were more than 30 µM and 0.018 µM, respectively. The molecule further displayed a clearance in data set [12] of 0.23 mL/min/kg.

Consider `O=C(O)C[C@H]1c2ccccc2C[C@@H]1NC(=O)c1cc2sc(Cl)c(Cl)c2[nH]1`, for which the IC50 in data set [2] amounted to 1.5 µM.

As for `O=C(O)CCCS(=O)(=O)C[C@@H]1c2ccccc2C[C@H]1NC(=O)c1cc2sc(Cl)c(Cl)c2[nH]1`, the bioavailability in data set [1] was 2%. Besides, the fraction unbound in data set [3] is 0.3%. In addition, the IC50 in data set [2] was determined as 0.042 µM.

For the molecule `O=C(O)C[C@@H]1c2ccccc2C[C@H]1NC(=O)c1cc2cc(Cl)cc(F)c2[nH]1`, in [1], the bioavailability was found to be 41%. Moreover, the IC50 in [2] was 0.052 µM.

`COCC[C@H](C(=O)O)[C@@H]1c2ccccc2C[C@H]1NC(=O)c1cc2sc(Cl)c(Cl)c2[nH]1` [(S)-2-((1R,2R)-2-(2,3-DICHLORO-4H-THIENO[3,2-B]PYRROLE-5-CARBOXAMIDO)-2,3-DIHYDRO-1H-INDEN-1-YL)-4-METHOXYBUTANOIC ACID (DIASTEREOMERIC MIX)]: the Activity in [14] came to 50%. Moreover, the inhibition at 10 µM in data set [4], in data set [5], in [8], in data set [11] and in [13] was less than 50% each time. Moreover, in data set [6], the bioavailability came to 118%. The F in data set [15] was 150% and 65%. Further, the Vd in data set [7] stood at 0.2 L/kg. The same molecule showed a half-life in [9] of 7 h. Further, the clearance in data set [12] was 0.4 mL/min/kg.
